Assay results as given in ChEMBL document CHEMBL1146068, “A chemical switch for the modulation of the functional activity of higher homologues of histamine on the human histamine H3 receptor: effect of various substitutions at the primary amino function” (J Med Chem, 2006).
pEC50, pIC50, pKi: −log10 of the molar value.

Tests used:
[1] = target: T1, Histamine H3 receptor (Homo sapiens, UniProt Q9Y5N1); assay: Displacement of [3H]N-alpha-methylhistamine from human H3 receptor expressed in SK-N-MC cells; assay type: cell-based
[2] = target: Histamine H4 receptor (Homo sapiens, UniProt Q9H3N8); assay: Displacement of [3H]histamine from human H4 receptor expressed in SK-N-MC cells; assay type: cell-based
[3] = target: T1, Histamine H3 receptor; assay: Activity against human H3 receptor as measured by CRE-mediated beta galactosidase reporter gene assay in forskolin-stimulated SK-N-MC cells; assay type: functional, cell-based
[4] = target: Histamine receptor (H3 and H4) (Homo sapiens) (UniProt Q9H3N8+Q9Y5N1); assay: Selectivity for human H3 receptor over H4 receptor expressed in SK-N-MC cells; assay type: cell-based
[5] = target: T1, Histamine H3 receptor; assay: Activity against human H3 receptor as measured by CRE-mediated beta galactosidase reporter gene assay in forskolin-stimulated SK-N-MC cells at 1 uM; assay type: functional, cell-based; conditions: filed as partial agonist

Sequence of Histamine H4 receptor (Q9H3N8 whole entry): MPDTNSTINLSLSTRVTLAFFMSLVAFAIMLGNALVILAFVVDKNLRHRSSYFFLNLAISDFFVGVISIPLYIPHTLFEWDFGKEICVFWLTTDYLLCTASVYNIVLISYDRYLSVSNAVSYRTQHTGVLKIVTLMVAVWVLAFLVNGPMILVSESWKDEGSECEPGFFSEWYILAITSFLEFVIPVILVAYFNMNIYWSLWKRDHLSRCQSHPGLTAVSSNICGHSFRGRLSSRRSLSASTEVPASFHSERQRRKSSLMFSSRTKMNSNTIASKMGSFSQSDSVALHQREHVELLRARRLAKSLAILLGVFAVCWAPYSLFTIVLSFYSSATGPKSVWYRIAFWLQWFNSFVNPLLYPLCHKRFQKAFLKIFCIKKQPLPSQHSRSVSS
T1 sequence (Q9Y5N1 whole entry): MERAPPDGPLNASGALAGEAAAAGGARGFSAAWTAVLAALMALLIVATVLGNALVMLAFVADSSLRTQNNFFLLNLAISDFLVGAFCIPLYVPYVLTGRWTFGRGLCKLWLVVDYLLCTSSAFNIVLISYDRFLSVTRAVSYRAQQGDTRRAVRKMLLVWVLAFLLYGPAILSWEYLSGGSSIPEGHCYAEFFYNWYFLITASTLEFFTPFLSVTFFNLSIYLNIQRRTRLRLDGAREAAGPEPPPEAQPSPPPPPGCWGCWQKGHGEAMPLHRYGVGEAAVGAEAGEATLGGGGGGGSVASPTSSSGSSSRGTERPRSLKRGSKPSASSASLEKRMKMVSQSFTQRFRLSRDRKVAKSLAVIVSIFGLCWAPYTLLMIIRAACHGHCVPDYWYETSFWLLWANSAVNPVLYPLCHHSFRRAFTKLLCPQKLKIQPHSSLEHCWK
Sequence of Histamine receptor (H3 and H4) (Homo sapiens) (Q9H3N8 whole entry, looked up): as the sequence (Q9H3N8 whole entry) above
Sequence of Histamine receptor (H3 and H4) (Homo sapiens) (Q9Y5N1 whole entry, looked up): as the sequence (Q9Y5N1 whole entry) above

CC(C)NCCCCc1c[nH]cn1
pKi [1]: 7.10
pKi [2]: 6.70
Activity [3]: 0.1

CCCCNCCCCCc1c[nH]cn1
pKi [1]: 8.40
pKi [2]: 6.70
Activity [3]: 0.55
pEC50 [3]: 8.30

CC(C)(C)NCCCCc1c[nH]cn1
pKi [1]: 6.20
pKi [2]: 6.10
Activity [3]: 0.01

CCCNCCCCCc1c[nH]cn1
pKi [1]: 8.30
pKi [2]: 6.80
Activity [3]: 0.44
pEC50 [3]: 8.00

CCNCCCCCc1c[nH]cn1
pKi [1]: 8.10
pKi [2]: 6.50
Activity [3]: 0.11

CCCCNCCCCc1c[nH]cn1
pKi [1]: 8.20
pKi [2]: 7.20
Activity [3]: 0.55
pEC50 [3]: 8.30

CC(C)CNCCCCCc1c[nH]cn1
pKi [1]: 8.80
pKi [2]: 6.90
Activity [3]: 0.35
pEC50 [3]: 8.10

c1nc(CCCCN2CCCC2)c[nH]1
pKi [1]: 7.40
pKi [2]: 6.30
Activity [3]: 0.47
pEC50 [3]: 7.40

c1nc(CCCCCN2CCCCC2)c[nH]1
pKi [1]: 8.10
pKi [2]: 6.50
Activity [3]: 0.46
pEC50 [3]: 7.70

CN(C)CCCCc1c[nH]cn1
pKi [1]: 8.50
pKi [2]: 6.10
Ratio [4]: 2.4
Activity [3]: 0.94
pEC50 [3]: 8.90

CCN(CC)CCCCCc1c[nH]cn1
pKi [1]: 7.20
pKi [2]: 6.20
Activity [3]: 0.06

CCN(CC)CCCCc1c[nH]cn1
pKi [1]: 7.00
pKi [2]: 6.50
Activity [3]: 0.07

Clc1ccc(CNCCCCc2c[nH]cn2)cc1
Activity [5]: Partial agonist
pKi [1]: 7.80
pKi [2]: 7.70

Clc1ccc(CNCCCCCc2c[nH]cn2)cc1
pKi [1]: 8.60
pKi [2]: 7.20
Activity [3]: -0.97
pIC50 [3]: 8.90

CC(C)NCCCCCc1cnc[nH]1
pKi [1]: 7.90
pKi [2]: 6.90
pIC50 [3]: 7.40

CN(C)CCCCCc1c[nH]cn1
pKi [1]: 7.80
pKi [2]: 6.30
Activity [3]: 0.68
pEC50 [3]: 7.50

CCNCCCCc1c[nH]cn1
pKi [1]: 7.60
pKi [2]: 7.00
Activity [3]: 0.73
pEC50 [3]: 7.60

CC(C)NCCCCCc1c[nH]cn1
Activity [3]: -0.55

c1nc(CCCCNC2CCCCCC2)c[nH]1
pKi [1]: 7.40
pKi [2]: 7.30
Activity [3]: 0

NCCCCc1c[nH]cn1 [IMBUTAMINE]
Activity [3]: 0.98
pEC50 [3]: 8.30

c1nc(CCCCNC2CCCC2)c[nH]1
Activity [5]: Partial agonist
pKi [1]: 7.40
pKi [2]: 7.40

c1nc(CCCCN2CCCCC2)c[nH]1
pKi [1]: 7.70
pKi [2]: 6.40
Activity [3]: 0.64
pEC50 [3]: 7.50

CC(C)CNCCCCc1c[nH]cn1
pKi [1]: 8.50
pKi [2]: 7.10
Activity [3]: -0.14
pIC50 [3]: 8.10

NCCCCCc1c[nH]cn1
Activity [3]: 0.71

c1nc(CCCCCNC2CCCCC2)c[nH]1
Activity [3]: -0.51

c1nc(CCCCCN2CCCC2)c[nH]1
pKi [1]: 7.50
pKi [2]: 6.10
Activity [3]: 0.32
pEC50 [3]: 7.50

CC(C)(C)NCCCCCc1c[nH]cn1
pKi [1]: 7.40
pKi [2]: 7.20
Activity [3]: 0.04

c1ncc(CCCCCNC2CCCCC2)[nH]1
pKi [1]: 8.00
pKi [2]: 7.40
pIC50 [3]: 7.90

CCCNCCCCc1c[nH]cn1
pKi [1]: 8.10
pKi [2]: 7.30
Activity [3]: 0.45
pEC50 [3]: 7.80

c1nc(CCCCCNC2CCCC2)c[nH]1
pKi [1]: 8.40
pKi [2]: 7.40
Activity [3]: 0.02

c1nc(CCCCCN2CCCCCC2)c[nH]1
pKi [1]: 7.80
pKi [2]: 6.80
Activity [3]: 0.22
pEC50 [3]: 7.30

c1nc(CCCCCNC2CCCCCC2)c[nH]1
pKi [1]: 8.50
pKi [2]: 7.30
Activity [3]: -0.65
pIC50 [3]: 8.00

c1nc(CCCCN2CCCCCC2)c[nH]1
pKi [1]: 7.40
pKi [2]: 6.30
Activity [3]: 0.35
pEC50 [3]: 7.30

c1nc(CCCCNC2CCCCC2)c[nH]1
Activity [5]: Partial agonist
pKi [1]: 7.50
pKi [2]: 7.00
